One block for each substance: values may come before it. In the oligonucleotide strings, read from the 5' end, every base follows the letter of its sugar. An asterisk marks phosphorothioate; unmarked linkages are phosphodiester. Other units and linkages are bracketed, terminal groups are in braces. A string of capitals states the bases alone. d = 2'-deoxy (DNA)
Key:
PbrRALF11 = test: Expression of PbrRALF11 after PbrRALF2-ODN treatment; format: cell-based, pear
Procedure: (§1) The MIQE guidelines were followed for quantitative RT-PCR (qRT–PCR) experiments. The Plant Total RNA Isolation Kit (FOREGENE, Chengdu, China) was used to extract total RNA, and DNase I was used to eliminate genomic DNA contaminants. A RevertAid First Strand cDNA Synthesis Kit was used to reverse transcription purified total RNA (3 μg) (Thermo Scientific, USA). Then, using SYBR Green Master Mix on a LightCycler® 480 II (Roche, Switzerland), quantitative PCR (qPCR) was performed on 20-μl samples according to the manufacturer’s instructions. The thermal cycle was performed at 95 °C for 5 min, followed by 45 cycles of 15 s at 95 °C and 15 s at 60 °C. The pear TUBULIN gene was used as an internal control, and relative expression levels were evaluated using the 2CT2 − △△CT method, as previously described. The primers for RT-PCR and qRT–PCR of PbrRALFs, PbrCrRLK1L13, PbrMPK18, and PbrTUB in pear are presented in Supplementary Tables S5 and S6, respectively.
(§2) Twenty-mer phosphorothioate oligonucleotides against PbrRALF2, PbrCrRLK1L13, PbrMPK18, and their sense controls (s-ODN) were synthesized with three 5′- and 3′-phosphorothioate-modified bases, and a scrambled mismatch sequence was used as a control. […] More than 35 pollen tubes were measured in each treatment, and the experiments were repeated at least three times. […]

PbrRALF7 = test: Expression of PbrRALF7 after PbrRALF2-ODN treatment; format: cell-based, pear
Procedure: as §1, §2

FER = settings: Arabidopsis; cited from earlier work
Description: (§3) PbrCrRLK1L13 interacts with its PbrRALF2 ligand via exJM at the plasma membrane (Fig. 2B), similar to the region where LORELEI and LLG1 physically interact with FER[42], thus implying a potentially conserved role for the exJM region of CrRLK1Ls. […] Such phosphorylation by peptides has similarly been observed for multiple receptor-like kin ...

BAK1 = settings: Arabidopsis; cited from earlier work
Description: as §3

[1] = molecular target: GST-PbrCrRLK1L13-ECD (pear (Pyrus bretschneideri)); test: ITC; MicroCal ITC200, 25 °C; 200 μM PbrRALF2 in the syringe titrated into 20 μM PbrCrRLK1L13 extracellular domain; 50 mM phosphate pH 7.4, 150 mM NaCl; one set of sites model; apparent
[2] = molecular target: GST-PbrCrRLK1L13-ECD (pear (Pyrus bretschneideri))
[3] = molecular target: GST-PbrCrRLK1L13-ECD (pear (Pyrus bretschneideri)); test: SPR; Biacore T200, 25 °C; PbrCrRLK1L13 immobilised on a CM5 chip by amine coupling; running buffer 10 mM HEPES, 150 mM NaCl, 3 mM EDTA, pH 7.4; PbrRALF2 injected at 15, 30, 60 and 120 nM; steady-state 1:1 model; apparent

Substance: PbrRALF2-ODN-1: antisense ODN GTGATGGCGCTGCAGCCGCGG (antisense dG*dT*dG*dAdTdGdGdCdGdCdTdGdCdAdGdCdCdG*dC*dG*dG)
expression level of PbrRALF11 (PbrRALF11): not affected
expression level of PbrRALF7 (PbrRALF7): not affected

Substance: PbrRALF2-ODN-2: antisense ODN GCGCACCGTAGCTGATGT (antisense dG*dC*dG*dCdAdCdCdGdTdAdGdCdTdGdA*dT*dG*dT)
expression level of PbrRALF11 (PbrRALF11): not affected
expression level of PbrRALF7 (PbrRALF7): not affected

Substance: RALF1: Arabidopsis RALF1, ligand of FER (ATTKYISYQSLKRNSVPCSRRGASYYNCQNGAQANPYSRGCSKIARCRS; UniProt Q9SRY3 72-120, looked up)
FER phosphorylation (FER): triggers FER
BAK1 phosphorylation (BAK1): BAK1[41] phosphorylation

Kd [1]: 512 nM
IC50 of inhibition of pear pollen tube growth by E. coli-expressed PbrRALF2 (0.025-1 μM) [2]: 92 nM
Kd [3]: 73 nM
Substance: recombinant PbrRALF2 (His-PbrRALF fusion protein from pCold-TF) (ligand)

Source: article PMC8490453, “PbrRALF2-elicited reactive oxygen species signaling is mediated by the PbrCrRLK1L13-PbrMPK18 module in pear pollen tubes” (Horticulture Research, 2021)
